From patent US20100240760A1 (priority 2005, published 2010)

Legend:
[1] = tested on: patients with mild-to-moderate essential hypertension; experiment: Clinical trial A2201 (Example I): aliskiren vs placebo and irbesartan, 8 weeks; assay type: in vivo, human; details: for MSDBP responders / MSSBP responders: ITT population at Endpoint, aliskiren 150-600 mg groups, irbesartan 150 mg; for MSDBP responders: responder: MSDBP <90 mm Hg or ≧10 mm Hg reduction from baseline; for MSSBP responders: responder: MSSBP <140 mm Hg or ≧20 mm Hg reduction from baseline; for mean increase in active renin: ITT population
From the text: The clinical trial. A multicenter, randomized, double-blind, parallel group clinical trial was designed to explore the efficacy and safety of aliskiren compared to placebo in a population of mild-to-moderate hypertensive patients. The treatment was for eight weeks, i.e., the clinical trial endpoint was at eight weeks for this particular trial. […] The majority of patients were Caucasian and younger than 65 years of age, with a mean age in the mid 50s. The overall distribution of males and females was even. The primary efficacy variable analysed was MSDBP change (reduction in MSDBP from baseline). The secondary efficacy variables analysed were MSSBP change (reduction in MSSBP from baseline), responder ratio, plasma renin activity (PRA) reduction and active plasma renin (AREN) increase from baseline.

[2] = tested on: hypertensive patients; experiment: Clinical trial A2203 (Example II): aliskiren, valsartan and combinations, 6 weeks; assay type: in vivo, human
[3] = tested on: patients with mild-to-moderate essential hypertension; experiment: Re-analysis of A2201 by genotype (Example II model, LSMEAN, race as covariate); assay type: in vivo, human; details: all aliskiren treated groups in A2201
From the text: Samples. Patients participating in the clinical trial A2201 (see, EXAMPLE I) and clinical trial A2203 were asked to provide a separate consent for participation in pharmacogenetic analysis. Blood samples from all consenting patients were collected at the individual trial sites and then shipped to Covance (Indianapolis, Ind.). The genomic DNA of each patient was extracted from the blood by Covance using the […]™ DNA Isolation Kit (D-50K) (Gentra, Minneapolis, Minn.) and shipped to NIBR for genotyping. Ultimately, 511 patients from the clinical trial in EXAMPLE I (A2201) were genotyped, with roughly equal ratios of each treatment arm.
The primary efficacy variable was MSDBP change (reduction in MSDBP from baseline at end point). The secondary efficacy variables are MSSBP change (reduction in MSSBP from baseline at end point), responder ratio, plasma renin activity (PRA) reduction and active plasma renin (AREN) increase from baseline.
Genotyping. SNP assays were designed using information from the public dbSNP database and the proprietary Celera/ABI database. The resulting probe sets for the genotyping assay were generated for ABI's Assays-by-Design® platform. Livak K J et al., Nat. Genet. 9: 341-2 (1995). Genotyping was performed on 10 ng of genomic DNA according to the manufacturer's instructions.
Statistical analysis. Genotype-phenotype association studies and related analyses were performed in SAS (Cary, N.C.) using Analyst.
Association tests used categorical genotypes as the independent variable, with no assumption about dominance, and the various efficacy variables as dependent variables. Tests of continuous dependent variables used an ANCOVA analysis, and logistic regression was used for categorical dependent variables. Note that none of the results have been adjusted for multiple hypothesis testing. […] Covariates in the genotype-phenotype association analysis were: (1) dose level of treatment; (2) trial region coded as STU1A in A2201 (see EXAMPLE I) or REGION in A2203; (3) baseline measurement of MSDBP and MSSBP; and (4) race. Analysis was performed in all the samples from the three aliskiren treated arms first.

[4] = tested on: patients with mild-to-moderate essential hypertension; experiment: Clinical trial A2201 (Example I): aliskiren vs placebo and irbesartan, 8 weeks; assay type: in vivo, human; details: 75, 150, or 300 mg once daily; mild-to-moderate hypertensive patients
[5] = tested on: sodium-depleted marmosets; details: p.o. or i.v.; cited from earlier work
[6] = humans; cited from earlier work
[7] = tested on: patients with mild-to-moderate essential hypertension; experiment: Pharmacogenetic analysis of A2201 (Example I): response by ACE and AGTR2 genotype; assay type: in vivo, human; details: aliskiren treated groups pooled
[8] = SNP_4769 genotype CT (n 14), listed as Aliskiren
[9] = SNP_4769 genotype TT (n 278), listed as Aliskiren

CCCCC1=NC2(CCCC2)C(=O)N1Cc1ccc(-c2ccccc2-c2nnn[nH]2)cc1 [irbesartan]
MSDBP responders [1]: 56% | MSSBP responders [1]: 59% | mean increase in active renin ([1]; 150 mg): 11.2 mu/mL

COCCCOc1cc(C[C@@H](C[C@H](N)[C@@H](O)C[C@H](C(=O)NCC(C)(C)C(N)=O)C(C)C)C(C)C)ccc1OC [aliskiren, Aliskiren]
change from baseline in MSDBP, aliskiren monotherapy vs. placebo ([2]; aliskiren 300 mg group, 6 weeks): statistically significant | dose-response and magnitude of placebo-subtracted effects ([2]; preliminary clinical study results summary, placebo response 8.6 mmHg): lower than expected | LSMEAN of MSDBP reduction ([3]; SNP_1445 genotype AA (n 106)): −11.0 mmHg | LSMEAN of MSSBP reduction ([3]; SNP_1445 genotype AA (n 106)): −11.2 mmHg | Responder rate ([3]; SNP_1445 genotype AA (n 106)): 75% | LSMEAN of MSDBP reduction ([3]; SNP_1445 genotype AG (n 69)): −13.3 mmHg | LSMEAN of MSSBP reduction ([3]; SNP_1445 genotype AG (n 69)): −13.8 mmHg | Responder rate ([3]; SNP_1445 genotype AG (n 69)): 71% | LSMEAN of MSDBP reduction ([3]; SNP_1445 genotype GG (n 118)): −9.4 mmHg | LSMEAN of MSSBP reduction ([3]; SNP_1445 genotype GG (n 118)): −9.8 mmHg | Responder rate ([3]; SNP_1445 genotype GG (n 118)): 58% | Responder rate ([3]; SNP_4769 genotype CT (n 14)): 14% | LSMEAN of MSDBP reduction ([3]; SNP_4795 genotype AA (n 115)): −9.2 mmHg | LSMEAN of MSSBP reduction ([3]; SNP_4795 genotype AA (n 115)): −9.5 mmHg | Responder rate ([3]; SNP_4795 genotype AA (n 115)): 57% | LSMEAN of MSDBP reduction ([3]; SNP_4795 genotype GA (n 72)): −13.4 mmHg | LSMEAN of MSSBP reduction ([3]; SNP_4795 genotype GA (n 72)): −14.2 mmHg | Responder rate ([3]; SNP_4795 genotype GA (n 72)): 74% | LSMEAN of MSDBP reduction ([3]; SNP_4795 genotype GG (n 106)): −10.8 mmHg | LSMEAN of MSSBP reduction ([3]; SNP_4795 genotype GG (n 106)): −10.8 mmHg | Responder rate ([3]; SNP_4795 genotype GG (n 106)): 75% | MSDBP responders [1]: 59-67% | MSSBP responders [1]: 57-68% | mean increase in active renin ([1]; 150 mg): 20.8 mu/mL | mean increase in active renin ([1]; 300 mg): 29.9 mu/mL | mean increase in active renin ([1]; 600 mg): 93.6 mu/mL | MSDBP reduction, comparison across treatment groups ([1]; aliskiren 300 and 600 mg): greatest reductions | MSSBP reduction, comparison across treatment groups ([1]; aliskiren 300 and 600 mg): greatest reductions | MSSBP reduction, comparison with placebo and irbesartan ([1]; aliskiren 300 and 600 mg, at Endpoint): statistically superior to placebo and irbesartan | daytime ambulatory systolic blood pressure (DASBP) [4]: statistically significant reduction | inhibition of plasma renin activity (PRA) [5]: complete inhibition | mean arterial pressure (MAP) [5]: sustained reductions | plasma concentrations of active and total renin [5]: significant increases | Cmax and AUC dependence on dose [6]: increase with dose, but in a non-linear fashion | bioavailability [6]: approximately 2.7% | half-life [6]: approximately 25 hours | time to peak plasma levels after administration [6]: 3 to 5 h | MSDBP reduction ([7]; SNP_1445 genotype AA (n 106)): −11.2 mmHg | MSSBP reduction ([7]; SNP_1445 genotype AA (n 106)): −13.9 mm Hg | MSDBP reduction ([7]; SNP_1445 genotype AG (n 69)): −13.2 mmHg | MSSBP reduction ([7]; SNP_1445 genotype AG (n 69)): −15.7 mm Hg | MSDBP reduction ([7]; SNP_1445 genotype GG (n 118)): −9.3 mmHg | MSSBP reduction ([7]; SNP_1445 genotype GG (n 118)): −11.8 mm Hg | MSDBP reduction ([7]; SNP_4769 genotype CT (n 14)): 4.7 mmHg | MSSBP reduction ([7]; SNP_4769 genotype CT (n 14)): 6.2 mm Hg | MSDBP reduction [7, 8]: −4.7 mmHg | MSSBP reduction [7, 8]: −6.2 mm Hg | MSDBP reduction ([7]; SNP_4769 genotype TT (n 278)): 11.1 mmHg | MSSBP reduction ([7]; SNP_4769 genotype TT (n 278)): 13.7 mm Hg | MSDBP reduction [7, 9]: −11.1 mmHg | MSSBP reduction [7, 9]: −13.7 mm Hg | MSDBP reduction ([7]; SNP_4795 genotype AA (n 115)): −9.0 mmHg | MSSBP reduction ([7]; SNP_4795 genotype AA (n 115)): −11.5 mm Hg | MSDBP reduction ([7]; SNP_4795 genotype GA (n 72)): −13.3 mmHg | MSSBP reduction ([7]; SNP_4795 genotype GA (n 72)): −16.3 mm Hg | MSDBP reduction ([7]; SNP_4795 genotype GG (n 106)): −11.1 mmHg | MSSBP reduction ([7]; SNP_4795 genotype GG (n 106)): −13.6 mm Hg
